Converted amounts (≈) assume the structure as drawn. The source made the active and inactive calls. The rule behind the calls is not given here.
Experiments:
[1] = species: Homo sapiens; experiment: Inhibition of human DNA topoisomerase 2 at 400 uM
[2] = system: KB; experiment: Cytotoxicity against human KB cells; assay type: functional; conditions: read-out: ED50 (the source's name)
[3] = species: Homo sapiens; experiment: Inhibition of human DNA topoisomerase 2 at 200 uM
[4] = system: P388; experiment: In vivo cytotoxicity against mouse P388 cells at 50 mg/kg/day relative to control; assay type: functional

SMILES | inhibition [1] [%] | EC50 [2] [µg/mL] | inhibition [3] | T/C [4] [%]
CCO[C@@H]1c2cc3c(cc2[C@@H](c2cc(OC)c(O)c(OC)c2)[C@H]2C(=O)OC[C@@H]21)OCO3 | 25 | 1.1 (≈ 2.57 µM) |  | 
CCOc1c2c(c(-c3cc(OC)c(O)c(OC)c3)c3cc4c(cc13)OCO4)C(=O)OC2 |  | 4 (≈ 9.42 µM) | inactive | 
COc1cc(-c2c3c(c(O)c4cc5c(cc24)OCO5)COC3=O)cc(OC)c1O |  | 2.2 (≈ 5.55 µM) | inactive | 
COc1cc([C@@H]2c3cc4c(cc3[C@@H](O)[C@H]3COC(=O)[C@H]23)OCO4)cc(OC)c1O [4'-DEMETHYLEPIPODOPHYLLOTOXIN] | 50 | 0.1 (≈ 0.25 µM) |  | 
CCOc1c2c(c(-c3cc(OC)c(OC)c(OC)c3)c3cc4c(cc13)OCO4)C(=O)OC2 [DEHYDROPODOPHYLLOTOXIN ETHYL ETHER] |  | 4 (≈ 9.12 µM) | inactive | 
CCCOc1c2c(c(-c3cc(OC)c(OC)c(OC)c3)c3cc4c(cc13)OCO4)C(=O)OC2 [DEHYDROPODOPHYLLOTOXIN PROPYL ETHER] |  | 4 (≈ 8.84 µM) | inactive | 
COc1cc(-c2c3c(c(O)c4cc5c(cc24)OCO5)COC3=O)cc(OC)c1OC [DEHYDROPODOPHYLLOTOXIN] |  | 4 (≈ 9.75 µM) | inactive | 
COc1cc2c(O)c3c(c(-c4ccc5c(c4)OCO5)c2cc1OC)C(=O)OC3 [DIPHYLLIN] |  | < 1 |  | 150
COc1cc([C@@H]2c3cc4c(cc3[C@@H](O[C@@H]3O[C@@H]5CO[C@@H](C)O[C@H]5[C@H](O)[C@H]3O)[C@H]3COC(=O)[C@H]23)OCO4)cc(OC)c1O [ETOPOSIDE] | 85 | 0.1 (≈ 0.17 µM) | 80% | 
COc1cc2c(OC)c3c(c(-c4ccc5c(c4)OCO5)c2cc1OC)C(=O)OC3 [JUSTICIDIN A] |  | < 1 |  | 150
